This note sets out measurements from PubChem BioAssay AID274 (DTP/NCI, 2004).

Molecules are shown by their SMILES. Several values for one entry are separate records, joined by “and”; a condition that tells them apart may be missing. Equal entries are not always repeated. Inconclusive results and toxic doses are left out. Numbered stars: 1 amine (or outer) side, 2 acyl side, 3 side chain; on linkers, the order of the positions; unused ones are H or OH. Bridge positions count the residues as written; N and C are the ends. Square brackets hold non-standard residues; d marks the D form. Peptide text beside a SMILES is read from it. I, II: the chains in the order shown. Actinocin(1to9) = Cc1c2oc3c(C)ccc(C(=O)[*:2])c3nc-2c(C(=O)[*:1])c(N)c1=O; NMeV = CN[CH](C(=O)O)C(C)C; Aze = O=C(O)[CH]1CCN1; Sar = CNCC(=O)O

This assay relates to BDF1 mice, Lewis lung carcinoma iv, survival T/C. Briefly: NCI In Vivo Anticancer Drug Screen. Data for tumor model Lewis Lung Carcinoma (intravenous) in B6D2F1 (BDF1) mice. The note with it: endpoint: median survival time, higher = longer survival. How it is done: The antitumor activity of compounds was measured in mice bearing transplantable tumors. Survival or tumor size were measured and the results are expressed as the measurement made in the treated group (T) divided by the measurement made in the vehicle treated control group (C). The tumor model used in this assay is Lewis Lung Carcinoma (intravenous) in B6D2F1 (BDF1) mice

Where [1] appears, read: dose: 12.5 mg/kg/injection, schedule: Q01DX009 (ip), vehicle: saline with Tween-80.
Setting [2] is: dose: 25.0 mg/kg/injection, schedule: Q01DX009 (ip), vehicle: saline with Tween-80.
The mark [3] stands for this setting: dose: 50.0 mg/kg/injection, schedule: Q01DX009 (ip), vehicle: saline with Tween-80.
[4] abbreviates: dose: 100.0 mg/kg/injection, schedule: Q01DX009 (ip), vehicle: saline with Tween-80.
[5] abbreviates: dose: 200.0 mg/kg/injection, schedule: Q01DX009 (ip), vehicle: saline with Tween-80.
Setting [6] is: dose: 400.0 mg/kg/injection, schedule: Q01DX009 (ip), vehicle: saline with Tween-80.
Setting [7] is: dose: 6.25 mg/kg/injection, schedule: Q01DX009 (ip), vehicle: saline.
Setting [8] is: dose: 25.0 mg/kg/injection, schedule: Q01DX009 (ip), vehicle: saline.
Where [9] appears, read: dose: 6.25 mg/kg/injection, schedule: Q01DX009 (ip), vehicle: saline with Tween-80.
Where [10] appears, read: dose: 50.0 mg/kg/injection, schedule: Q01DX009 (ip), vehicle: saline.

As to `CC[C@@]1(O)C[C@H](OC2CC(N(C)C)C(OC3CC(O)C(OC4CCC(=O)C(C)O4)C(C)O3)C(C)O2)c2c(cc3c(c2O)C(=O)c2c(O)ccc(O)c2C3=O)[C@H]1C(=O)OC` (stereo not given in full), the T/C by setting is: (dose: 0.12 mg/kg/injection, schedule: Q01DX009 (ip), vehicle: water) 103 % of control; (dose: 0.25 mg/kg/injection, schedule: Q01DX009 (ip), vehicle: water) 103 % of control and 107 % of control; (dose: 0.5 mg/kg/injection, schedule: Q01DX009 (ip), vehicle: water) 96 % of control and 101 % of control; (dose: 0.88 mg/kg/injection, schedule: Q01DX009 (ip), vehicle: water) 117 % of control; (dose: 1.0 mg/kg/injection, schedule: Q01DX009 (ip), vehicle: water) 103 % of control; (dose: 1.7 mg/kg/injection, schedule: Q04DX003 (ip), vehicle: water) 94 % of control. For the same compound, the T/C by setting is: (dose: 1.92 mg/kg/injection, schedule: Q04DX003 (ip), vehicle: water) 110 % of control; (dose: 2.9 mg/kg/injection, schedule: Q04DX003 (ip), vehicle: water) 100 % of control and 117 % of control; (dose: 3.9 mg/kg/injection, schedule: Q04DX003 (ip), vehicle: water) 118 % of control; (dose: 4.8 mg/kg/injection, schedule: Q01DX001 (ip), vehicle: water) 109 % of control; (dose: 4.8 mg/kg/injection, schedule: Q04DX003 (ip), vehicle: water) 109 % of control and 122 % of control; (dose: 6.86 mg/kg/injection, schedule: Q01DX001 (ip), vehicle: water) 123 % of control. In addition, the T/C is 104 % of control (dose: 8.0 mg/kg/injection, schedule: Q04DX003 (ip), vehicle: water) and 86 % of control (dose: 13.3 mg/kg/injection, schedule: Q04DX003 (ip), vehicle: water).

For the compound `O=[N+]([O-])c1cc([N+](=O)[O-])c(Nn2c3ccccc3c3ccccc32)c([N+](=O)[O-])c1`, the T/C reads like this: under setting [1], 114 % of control; under setting [2], 105 % of control; under setting [3], 91 % of control.

Take `COc1cc(Cl)ccc1C`: the T/C is 111 % of control under setting [1]; 107 % of control under setting [2]; 97 % of control under setting [3]; 108 % of control under setting [4]; 102 % of control under setting [5]; 98 % of control under setting [6].

Turning to `O=C(O)c1ccc(C(=O)O)c(C(=O)O)c1.[NH-]C1CCCCC1[NH-].[Pt+2]`, the T/C runs as follows: (dose: 0.39 mg/kg/injection, schedule: Q01DX009 (ip), vehicle: sodium bicarbonate) 90 % of control; (dose: 0.78 mg/kg/injection, schedule: Q01DX009 (ip), vehicle: sodium bicarbonate) 100 % of control; (dose: 1.56 mg/kg/injection, schedule: Q01DX009 (ip), vehicle: sodium bicarbonate) 112 % of control; (dose: 3.12 mg/kg/injection, schedule: Q01DX009 (ip), vehicle: sodium bicarbonate) 122 % of control.

As to `CCOC(=O)C(N)C[S][Sn]([CH3])([CH3])[Cl]` (stereo not given), the T/C was 100 % of control under setting [7]; 102 % of control (dose: 12.5 mg/kg/injection, schedule: Q01DX009 (ip), vehicle: saline); 95 % of control under setting [8].

Regarding `ClCc1ccc2ccccc2n1`, the T/C under setting [2] was 100 % of control, the T/C under setting [3] is 92 % of control and the T/C under setting [4] is 119 % of control.

With `CCCCc1ccc2nc(NC(=O)OC)[nH]c2c1`, the T/C reads like this: under setting [9], 94 % of control; under setting [1], 92 % of control; under setting [2], 103 % of control; under setting [3], 102 % of control; under setting [4], 107 % of control.

For `CCCCCc1cc(/C=C2/N=C(c3ccc[nH]3)C=C2OC)[nH]c1C`, the T/C runs as follows: (dose: 0.25 mg/kg/injection, schedule: Q01DX009 (ip), vehicle: suspension in saline) 94 % of control; (dose: 0.5 mg/kg/injection, schedule: Q01DX009 (ip), vehicle: suspension in saline) 100 % of control; (dose: 1.0 mg/kg/injection, schedule: Q01DX009 (ip), vehicle: suspension in saline) 103 % of control; (dose: 2.0 mg/kg/injection, schedule: Q01DX009 (ip), vehicle: suspension in saline) 103 % of control; (dose: 4.0 mg/kg/injection, schedule: Q01DX009 (ip), vehicle: suspension in saline) 106 % of control; (dose: 8.0 mg/kg/injection, schedule: Q01DX009 (ip), vehicle: suspension in saline) 109 % of control.

For `O=c1[nH]c(=O)n(C2CC(O)C(CO)O2)cc1F` (stereo not given), the T/C (dose: 72.0 mg/kg/injection, schedule: Q04DX003 (ip), vehicle: saline) was 108 % of control and 113 % of control; the T/C (dose: 72.0 mg/kg/injection, schedule: Q04DX006 (ip), vehicle: saline) was 123 % of control; the T/C (dose: 103.0 mg/kg/injection, schedule: Q04DX006 (ip), vehicle: saline) is 116 % of control; the T/C (dose: 210.0 mg/kg/injection, schedule: Q04DX006 (ip), vehicle: saline) was 155 % of control; the T/C (dose: 300.0 mg/kg/injection, schedule: Q04DX006 (ip), vehicle: saline) is 96 % of control; the T/C (dose: 429.0 mg/kg/injection, schedule: Q04DX003 (ip), vehicle: saline) is 174 % of control.

`C[Si](C)(C)O/C=C1\CCCCC1=O`: the T/C under setting [9] is 96 % of control and 98 % of control; the T/C under setting [1] was 96 % of control and 98 % of control; the T/C under setting [2] is 93 % of control and 102 % of control; the T/C under setting [3] is 102 % of control and 107 % of control; the T/C under setting [4] was 104 % of control and 116 % of control; the T/C under setting [5] was 104 % of control and 113 % of control.

Take `O=C(O)CC(=O)O.[NH-]CC[NH-].[Pt+2]`: the T/C reads like this: under setting [7], 111 % of control; under setting [8], 156 % of control.

For the compound `CCCCCCCCCCCCCCCCCCNC(=S)N/N=C/c1ccc(Cl)cc1Cl`, the T/C is 110 % of control under setting [4], 108 % of control under setting [5] and 93 % of control under setting [6].

Consider `CCC(C(=O)O)C(=O)O.[NH-]CC1CCCC[N-]1.[Pt+2]`, for which the T/C by setting is: under setting [8], 98 % of control and 100 % of control; under setting [10], 100 % of control.

Consider `C[N+](C)(C)c1ncnc2nc[nH]c12`, for which the T/C is 103 % of control under setting [10]; 100 % of control (dose: 100.0 mg/kg/injection, schedule: Q01DX009 (ip), vehicle: saline); 103 % of control (dose: 200.0 mg/kg/injection, schedule: Q01DX009 (ip), vehicle: saline).

Turning to `Cc1ccc[c]([Hg][Cl])c1N=Nc1ccccc1`, the T/C was 100 % of control (dose: 0.78 mg/kg/injection, schedule: Q01DX009 (ip), vehicle: saline with Tween-80); 105 % of control (dose: 1.56 mg/kg/injection, schedule: Q01DX009 (ip), vehicle: saline with Tween-80); 90 % of control (dose: 3.12 mg/kg/injection, schedule: Q01DX009 (ip), vehicle: saline with Tween-80); 115 % of control under setting [9]; 94 % of control under setting [1].

For the compound `Cc1c2oc3c(C)ccc(C(=O)NC4C(=O)NC(C(C)C)C(=O)N5CCCC5C(=O)N(C)CC(=O)N(C)C(C(C)C)C(=O)OC4C)c3nc-2c(C(=O)NC2C(=O)NC(C(C)C)C(=O)N3CCC3C(=O)N(C)CC(=O)N(C)C(C(C)C)C(=O)OC2C)c(N)c1=O` (stereo not given) (I: TV[Aze][Sar][NMeV] / II: TVP[Sar][NMeV]; ester I:1-I:C, II:1-II:C; linker I:N-II:N via Actinocin(1to9); configuration not given here), the T/C is 105 % of control (dose: 37.5 micrograms/kg/injection, schedule: Q01DX009 (ip), vehicle: saline + alcohol); 113 % of control (dose: 75.0 micrograms/kg/injection, schedule: Q01DX009 (ip), vehicle: saline + alcohol); 92 % of control (dose: 194.0 micrograms/kg/injection, schedule: Q04DX003 (ip), vehicle: saline + alcohol); 95 % of control (dose: 270.0 micrograms/kg/injection, schedule: Q04DX003 (ip), vehicle: saline + alcohol); 105 % of control (dose: 324.0 micrograms/kg/injection, schedule: Q04DX003 (ip), vehicle: saline + alcohol); 104 % of control (dose: 450.0 micrograms/kg/injection, schedule: Q04DX003 (ip), vehicle: saline + alcohol). Further, the T/C by setting is: (dose: 540.0 micrograms/kg/injection, schedule: Q04DX003 (ip), vehicle: saline + alcohol) 105 % of control; (dose: 648.0 micrograms/kg/injection, schedule: Q01DX001 (ip), vehicle: saline + alcohol) 94 % of control; (dose: 1080.0 micrograms/kg/injection, schedule: Q01DX001 (ip), vehicle: saline + alcohol) 94 % of control.
